Laboratory results taken from patent publication US20110294766A1, “16 Alpha, 17 Alpha-Acetal Glucocorticosteroidal Derivatives and their Use” (AstraZeneca AB, priority 2008, published 2011).

Molecular target: T1, recombinant human GR (Homo sapiens, UniProt P04150)
T1 construct: purchased Panvera/Invitrogen P2812 (kit P2893)
T1 sequence (P04150 1-777): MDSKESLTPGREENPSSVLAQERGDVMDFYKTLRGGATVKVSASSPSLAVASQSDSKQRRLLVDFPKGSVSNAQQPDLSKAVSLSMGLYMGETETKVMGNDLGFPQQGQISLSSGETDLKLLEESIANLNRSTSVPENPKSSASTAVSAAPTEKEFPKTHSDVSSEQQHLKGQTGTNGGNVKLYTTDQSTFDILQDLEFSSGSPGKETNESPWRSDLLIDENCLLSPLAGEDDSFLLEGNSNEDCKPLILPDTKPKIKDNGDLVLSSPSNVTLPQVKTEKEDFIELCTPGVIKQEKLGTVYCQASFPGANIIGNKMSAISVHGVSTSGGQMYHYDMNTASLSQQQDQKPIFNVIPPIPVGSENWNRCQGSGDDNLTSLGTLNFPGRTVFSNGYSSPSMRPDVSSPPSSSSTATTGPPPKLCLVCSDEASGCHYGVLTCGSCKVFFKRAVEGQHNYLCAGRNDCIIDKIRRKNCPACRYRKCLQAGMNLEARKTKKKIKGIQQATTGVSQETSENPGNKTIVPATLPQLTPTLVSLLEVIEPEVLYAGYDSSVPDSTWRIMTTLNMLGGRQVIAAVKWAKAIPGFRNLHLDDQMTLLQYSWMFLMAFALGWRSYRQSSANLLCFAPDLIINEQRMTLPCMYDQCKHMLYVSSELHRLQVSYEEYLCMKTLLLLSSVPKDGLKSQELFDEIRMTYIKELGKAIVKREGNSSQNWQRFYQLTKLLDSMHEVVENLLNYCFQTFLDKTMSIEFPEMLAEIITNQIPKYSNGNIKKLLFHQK
Assay: Human Glucocorticoid Receptor (GR) Assay (fluorescence polarization, Panvera/Invitrogen kit)
Conditions: GS Red tracer, 2 hours at room temperature, 100% control 10 μM Dexamethasone, read-out: Inhibition of GR binding, IC50
Method in brief: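 Fluorescence polarization competition binding of compounds against Fluoromone GS Red tracer on recombinant human GR, in buffer of potassium phosphate, sodium molybdate, EDTA, DMSO with stabilizing peptide and DTT. Incubated 2 h at room temperature in the dark; read at ex 530/em 590 nm. Controls: DMSO (0%), 10 μM dexamethasone (100%).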

Row | Compound | IC50 [nM]
1 | C[C@]12C=CC(=O)C=C1CC[C@@H]1[C@@H]2[C@@H](O)C[C@@]2(C)[C@H]1C[C@H]1OC(c3ccccc3F)O[C@]12C(=O)SCC#N (stereo partly drawn) [Example 42, S-(Cyanomethyl)(4aR,4bS,5S,6aS,6bS,9aR,10aS,10bS)-8-(2-fluorophenyl)-5-hydroxy-4a,6a-dimethyl-2-oxo-2,4a,4b,5,6,6a,9a,10,10a,10b,11,12-dodecahydro-6bH-naphtho[2′,1′:4,5]indeno[1,2-d][1,3]dioxole-6b-carbothioate] | 1.5
2 | C[C@]12C=CC(=O)C=C1CC[C@@H]1[C@@H]2[C@@H](O)C[C@@]2(C)[C@H]1C[C@H]1OC(c3ccccc3F)O[C@]12C(=O)SCF (stereo partly drawn) [Example 43, S-(Fluoromethyl)(4aR,4bS,5S,6aS,6bS,9aR,10aS,10bS)-8-(2-fluorophenyl)-5-hydroxy-4a,6a-dimethyl-2-oxo-2,4a,4b,5,6,6a,9a,10,10a,10,11,12-dodecahydro-6bH-naphtho[2′,1′:4,5]indeno[1,2-d][1,3]dioxole-6b-carbothioate] | 0.81
3 | CSC(=O)[C@@]12OC(c3ccccc3F)O[C@@H]1C[C@H]1[C@@H]3CCC4=CC(=O)C=C[C@]4(C)[C@H]3[C@@H](O)C[C@@]12C (stereo partly drawn) [Example 44, S-Methyl (4aR,4bS,5S,6aS,6bS,9aR,10aS,10bS)-8-(2-fluorophenyl)-5-hydroxy-4a,6a-dimethyl-2-oxo-2,4a,4b,5,6,6a,9a,10,10a,10b,11,12-dodecahydro-6bH-naphtho[2′,1′:4,5]indeno[1,2-d][1,3]dioxole-6b-carbothioate] | 0.62
